Measurements from PubChem BioAssay (NCI).
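Following 48 hours of exposure in 96-well plates, responses at five concentrations were used to interpolate endpoints linearly. TGI: total growth inhibition.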

Tests used:
Assay in all cases: growth of human tumour cells (NCI), 48 h
CCRF-CEM leukemia = system: CCRF-CEM leukemia
SF-539 CNS = system: SF-539 CNS
HL-60(TB) leukemia = system: HL-60(TB) leukemia
DMS 273 small cell lung = system: DMS 273 small cell lung
XF 498 CNS = system: XF 498 CNS
M19-MEL melanoma = system: M19-MEL melanoma
DMS 114 small cell lung = system: DMS 114 small cell lung
HOP-18 NSCLC = system: HOP-18 NSCLC
DLD-1 colon = system: DLD-1 colon
LXFL 529 NSCLC = system: LXFL 529 NSCLC
KM20L2 colon = system: KM20L2 colon
SNB-78 CNS = system: SNB-78 CNS

O=C1NC(=S)NC(=O)C1=Cc1ccc(-c2ccccc2)cc1
TGI (CCRF-CEM leukemia): > 100 µM
TGI (SF-539 CNS): > 100 µM

O=C(O)C1CCCCN1C(=O)Cc1c[nH]c2ccccc12 (stereo unspecified)
TGI (CCRF-CEM leukemia): > 100 µM
TGI (HL-60(TB) leukemia): > 100 µM
TGI (SF-539 CNS): > 100 µM

COc1ccccc1-n1c(N)c2c(C)c(-c3ccccc3)[nH]c2nc1=S
TGI (DMS 273 small cell lung): > 100 µM
TGI (XF 498 CNS): > 100 µM
TGI (M19-MEL melanoma): > 100 µM
TGI (DMS 114 small cell lung): > 100 µM
TGI (CCRF-CEM leukemia): > 100 µM
TGI (HL-60(TB) leukemia): > 100 µM
TGI (HOP-18 NSCLC): > 100 µM
TGI (DLD-1 colon): > 100 µM
TGI (LXFL 529 NSCLC): > 100 µM
TGI (SF-539 CNS): > 100 µM
TGI (KM20L2 colon): > 100 µM

O=C1C2Cc3c(n(C(=O)c4ccccc4)c4ccccc34)CC2C(=O)N1c1ccc(Nc2ccc(N3C(=O)C4Cc5c(n(C(=O)c6ccccc6)c6ccccc56)CC4C3=O)cc2)cc1 (stereo unspecified)
TGI (CCRF-CEM leukemia): > 100 µM
TGI (HL-60(TB) leukemia): 46.1 µM

CC1(C)S[C@H](CN)N[C@H]1C(=O)OC(c1ccccc1)c1ccccc1
TGI (HL-60(TB) leukemia): 35.7 µM

NC(=O)c1nnsc1NN=O
TGI (CCRF-CEM leukemia): > 100 µM
TGI (HL-60(TB) leukemia): > 100 µM
TGI (SF-539 CNS): > 100 µM

NC(=O)NNCc1c(-c2ccccc2)no[n+]1[O-]
TGI (CCRF-CEM leukemia): > 100 µM
TGI (HL-60(TB) leukemia): > 100 µM
TGI (SF-539 CNS): > 100 µM

CCOC(=O)c1sc2c(c1O)c(=O)n(-c1ccccc1)c(=S)n2-c1ccccc1
TGI (CCRF-CEM leukemia): > 100 µM
TGI (HL-60(TB) leukemia): > 100 µM

CC(C)CCC[C@@H](C)C1CCC2[C@@H]3CCC4C[C@@H](NS(C)(=O)=O)CC[C@]4(C)C3CC[C@@]21C (stereo partly specified)
TGI (CCRF-CEM leukemia): > 100 µM
TGI (HL-60(TB) leukemia): > 100 µM
TGI (SF-539 CNS): > 100 µM

COc1cc(C(C[N+](=O)[O-])SC(C)=O)ccc1OCc1ccccc1 (stereo unspecified)
TGI (CCRF-CEM leukemia): > 100 µM
TGI (HL-60(TB) leukemia): 1.57 µM
TGI (SF-539 CNS): 4.87 µM

CCO/C(O)=C(/C(=N)N1CCCC1)C(=O)Nc1cccc(Cl)c1
TGI (CCRF-CEM leukemia): > 100 µM
TGI (HL-60(TB) leukemia): > 100 µM
TGI (SF-539 CNS): > 100 µM

CC(C)[Si]1(C(C)C)OCC2OC(n3c(C(=O)c4ccccc4)cc(=O)[nH]c3=O)CC2O[Si](C(C)C)(C(C)C)O1 (stereo unspecified)
TGI (CCRF-CEM leukemia): 5.12 µM
TGI (HL-60(TB) leukemia): > 28.6 µM
TGI (SF-539 CNS): 8.6 µM

COc1cc(C2c3[nH]c4ccccc4c3[C@@H](Nc3ccc(C#N)cc3)[C@H]3COC(=O)N23)cc(OC)c1O (stereo partly specified)
TGI (CCRF-CEM leukemia): 0.404 µM
TGI (HL-60(TB) leukemia): 0.165 µM
TGI (SF-539 CNS): 0.208 µM

COc1cc(OC)c2c(=O)c3c([N+](=O)[O-])cccc3n(C)c2c1
TGI (DMS 273 small cell lung): > 100 µM
TGI (M19-MEL melanoma): > 100 µM
TGI (DMS 114 small cell lung): > 100 µM
TGI (CCRF-CEM leukemia): > 100 µM
TGI (HL-60(TB) leukemia): > 100 µM
TGI (HOP-18 NSCLC): > 100 µM
TGI (SNB-78 CNS): > 100 µM
TGI (DLD-1 colon): > 100 µM
TGI (LXFL 529 NSCLC): > 100 µM
TGI (SF-539 CNS): > 100 µM
TGI (KM20L2 colon): > 100 µM

C=C1C(=O)O[C@H]2C/C(C)=C/CC[C@]3(C)CCC[C@](C)(CC[C@@H]12)O3
TGI (CCRF-CEM leukemia): 3.38 µM
TGI (SF-539 CNS): 20.7 µM

CSc1nn(C)cc2nc(C)nc1-2
TGI (CCRF-CEM leukemia): > 100 µM
TGI (HL-60(TB) leukemia): > 100 µM
TGI (SF-539 CNS): > 100 µM

Oc1cnc2c(O)cccc2c1
TGI (HL-60(TB) leukemia): > 100 µM
TGI (SF-539 CNS): 96.6 µM

COC(=O)C1=C(OC(=O)/C=C/c2ccc(Cl)cc2)C(C(=O)OC)[C@]2(O)[C@@H](C(=O)OC)[C@H]1C[C@@H](c1ccccc1)[C@@H]2C(=O)OC (stereo partly specified)
TGI (CCRF-CEM leukemia): > 100 µM
TGI (HL-60(TB) leukemia): 23.7 µM
TGI (SF-539 CNS): 35.6 µM

COc1cc(/C=N/c2ccccn2)cc(OC)c1OC
TGI (CCRF-CEM leukemia): > 100 µM
TGI (HL-60(TB) leukemia): > 100 µM
TGI (SF-539 CNS): > 100 µM

CCN(CC)CCCNc1ccc([N+](=O)[O-])c2nc3ccc(OC)cc3c(N)c12
TGI (CCRF-CEM leukemia): 5.71 µM
TGI (HL-60(TB) leukemia): 4.03 µM
TGI (SF-539 CNS): 3.46 µM

COC(=O)n1c(C)c(C=O)c2ccc(OC)cc21
TGI (CCRF-CEM leukemia): > 100 µM
TGI (HL-60(TB) leukemia): > 100 µM
TGI (SF-539 CNS): 55.2 µM

O=C(Cn1c(=O)oc2ccc(C(=O)c3ccc(F)cc3)cc21)c1ccccc1
TGI (CCRF-CEM leukemia): > 100 µM
TGI (HL-60(TB) leukemia): > 100 µM
TGI (SF-539 CNS): > 100 µM

CC1(C(=O)O)C[C@](C)(C(=O)OCc2ccccc2)C[C@](C)(C(=O)OCc2ccccc2)C1 (stereo partly specified)
TGI (CCRF-CEM leukemia): > 100 µM
TGI (HL-60(TB) leukemia): 53.9 µM
TGI (SF-539 CNS): 64.5 µM

CCOC(=O)[C@@H]1ON2O[C@H](OC3CCCCC3c3ccccc3)C[C@H]3OC(=O)[C@@H]1C32 (stereo partly specified)
TGI (CCRF-CEM leukemia): 0.614 µM
TGI (SF-539 CNS): > 100 µM

CCCCCCNC(=S)N/N=C(\C)c1ccccn1
TGI (SF-539 CNS): 11.9 µM

OC(Cc1ccc2ccccc2n1)(C(F)(F)Cl)C(F)(F)Cl
TGI (CCRF-CEM leukemia): > 10 µM
TGI (SF-539 CNS): > 10 µM

COc1cc(C2c3cc4c(cc3OC(NCCc3ccccc3)C2C)OCO4)cc(OC)c1OC (stereo unspecified)
TGI (CCRF-CEM leukemia): > 62.3 µM
TGI (HL-60(TB) leukemia): 0.547 µM
TGI (SF-539 CNS): 1.23 µM

CCN(CC)c1ccc2cc(C(=O)NCc3ccccc3)c(=N)oc2c1
TGI (CCRF-CEM leukemia): > 100 µM
TGI (HL-60(TB) leukemia): > 100 µM
TGI (SF-539 CNS): > 100 µM

CC(C)CC(NP(=O)(O)OC1OC(C)C(O)C(O)C1O)C(=O)NC(Cc1c[nH]c2ccccc12)C(=O)O (stereo unspecified)
TGI (CCRF-CEM leukemia): > 100 µM
TGI (SF-539 CNS): > 100 µM

CCOC(=O)N(C)C(=C(F)F)C(F)(F)F
TGI (CCRF-CEM leukemia): 75.8 µM
TGI (HL-60(TB) leukemia): 49.7 µM
TGI (SF-539 CNS): 78.3 µM

NC(=O)C(=CNC(=S)Nc1ccc(S(=O)(=O)Nc2ccccn2)cc1)C(N)=O
TGI (CCRF-CEM leukemia): > 100 µM
TGI (SF-539 CNS): > 100 µM

CC(=O)Oc1c(OC(C)C)c(C)c(O[Si](C(C)C)(C(C)C)C(C)C)c2[nH]c3ccccc3c12
TGI (CCRF-CEM leukemia): > 100 µM
TGI (HL-60(TB) leukemia): 8.43 µM
TGI (SF-539 CNS): > 100 µM

N#Cc1ncn(CCO)c1N
TGI (CCRF-CEM leukemia): > 100 µM
TGI (HL-60(TB) leukemia): > 100 µM
TGI (SF-539 CNS): > 100 µM

CCN(CC)c1ccc(C2Nc3ccc4ccccc4c3C3=C2C(=O)CCC3)cc1 (stereo unspecified)
TGI (CCRF-CEM leukemia): > 100 µM
TGI (SF-539 CNS): 28.1 µM

COc1cc(C2SCC(=O)N2c2ccc(NC(C)=O)cc2)cc(OC)c1OC (stereo unspecified)
TGI (CCRF-CEM leukemia): > 100 µM
TGI (HL-60(TB) leukemia): > 100 µM
TGI (SF-539 CNS): > 100 µM

CCN1CCN(c2nc3ccccc3nc2C(=O)c2ccc(OC)c(OC)c2)CC1
TGI (CCRF-CEM leukemia): 46 µM
TGI (HL-60(TB) leukemia): > 100 µM
TGI (SF-539 CNS): 3.14 µM

O=C(Cc1ccc([N+](=O)[O-])c([N+](=O)[O-])c1CC(=O)C(=O)Nc1cc(Cl)ccc1Cl)C(=O)Nc1cc(Cl)ccc1Cl
TGI (DMS 273 small cell lung): 87.3 µM
TGI (M19-MEL melanoma): > 100 µM
TGI (DMS 114 small cell lung): > 100 µM
TGI (CCRF-CEM leukemia): > 100 µM
TGI (HL-60(TB) leukemia): > 100 µM
TGI (HOP-18 NSCLC): > 100 µM
TGI (SNB-78 CNS): > 100 µM
TGI (DLD-1 colon): > 100 µM
TGI (LXFL 529 NSCLC): > 100 µM
TGI (SF-539 CNS): > 100 µM
TGI (KM20L2 colon): > 100 µM

CCCCC(/C=C\COC1CCCCO1)=C/C(=O)OCC (stereo unspecified)
TGI (CCRF-CEM leukemia): > 100 µM
TGI (HL-60(TB) leukemia): 67.5 µM
TGI (SF-539 CNS): > 100 µM

CN(C)C(=O)OC1=CC2CCC(C1)N2C (stereo unspecified)
TGI (CCRF-CEM leukemia): > 100 µM
TGI (SF-539 CNS): > 100 µM
